Patent US20240327506A1, “METHODS AND COMPOSITION FOR THE SELECTIVE ENHANCEMENT OF ADOPTIVE CELL THERAPY” (MaineHealth, priority 2023, published 2024)

What was measured:
Hut78 T-cells = experiment: Transwell migration of Hut78 T-cells through collagen type-IV; format: cell-based, human; conditions: peptide, absence of SDF-1
Experimental: FIGS. 4A-4H. […] Briefly, membranes from transwell migration chambers were coated with either native collagen type-IV or denatured collagen type-IV. T-cell variants were incubated with non-specific control peptide CP, or the RGDKGE (SEQ ID NO: 1)-containing collagen peptide (P2) and seed on the coated transwell membranes. T-cells were allowed to migrate in the presence or absence of SDF-1 added to the lower chamber for approximately 1.5 hours. Cell migration was quantified by counting the number of crystal violet stained cells that had migrated through to the underside of the coated membrane. FIG. 4A. Jurkat T-cell migration through denatured collagen type-IV in the presence of non-specific control peptide CP or RGDKGE (SEQ ID NO: 1)-containing collagen peptide P2 with SDF-1. FIG. 4B. Jurkat T-cell migration through native collagen type-IV in the presence of non-specific control peptide CP or RGDKGE (SEQ ID NO: 1)-containing collagen peptide P2 with SDF-1. FIG. 4C. Cem/C1 T-cell migration through denatured collagen type-IV in the presence of non-specific control peptide CP or RGDKGE (SEQ ID NO: 1)-containing collagen peptide P2 with SDF-1. FIG. 4D. Cem/C1 T-cell migration through native collagen type-IV in the presence of non-specific control peptide CP or RGDKGE (SEQ ID NO: 1)-containing collagen peptide P2. FIG. 4E. Hut78 T-cell migration through denatured collagen type-IV in the presence of non-specific control peptide CP or RGDKGE (SEQ ID NO: 1)-containing collagen peptide P2. FIG. 4F. Hut78 T-cell migration through native collagen type-IV in the presence of non-specific control peptide CP or RGDKGE (SEQ ID NO: 1)-containing collagen peptide P2. FIG. 4G Primary CD8+ T-cell migration through denatured collagen type-IV in the presence of non-specific control peptide CP or RGDKGE (SEQ ID NO: 1)-containing collagen peptide P2 with SDF-1. FIG. 4H. CD8+ T-cell migration through native collagen type-IV in the presence of non-specific control peptide CP or RGDKGE (SEQ ID NO: 1)-containing collagen peptide P2 with SDF-1. Data bars indicate the mean cell migration±S.E. *P<0.05.
Given our new observations, and the fact that many tumor types as well as immunosuppressive macrophages can secrete the small soluble RGDKGE (SEQ ID NO: 1) collagen peptide, we next sought to determine whether this soluble collagen peptide could impact T-cell migration through denatured collagen type-IV, a critical ECM component shown to be selectively enriched in tumor vessels. Briefly, membranes from transwell migration chambers were coated with either native collagen type-IV or denatured collagen type-IV. […] Cell migration was quantified following staining cells with crystal violet (6,8). […]

[1] = test system: primary murine CD4+ Treg cells; experiment: Migration of primary CD4+ Treg cells on denatured collagen type-IV; format: cell-based; conditions: Treg from spleens of B16F10 tumor bearing mice, compared to CP
Experimental: Briefly, mice (C57BL/6) were injected subcutaneously with B16F10 cells. B16F10 tumors were allowed to grow for 14-days to allow formation of solid malignant melanomas. Spleens from tumor bearing mice were dissected and primary murine CD4+ Treg cells were isolated and analyzed for the effects of the soluble collagen peptide (P2) or control peptide (CP) on cell migration on denatured collagen type-IV. Data bars represent mean CD4+ Treg cell migration+SE from 3 wells per condition.
Given our surprising finding that CD4+ Treg cell migration is enhanced on denatured collagen-IV as compared to native collagen-IV, we next tested whether CD4+ Treg cell migration through denatured collagen-IV is altered by endogenously generated soluble RGDKGE (SEQ ID NO: 1) collagen peptide P2. For these experiments, mice (C57BL/6) were injected subcutaneously with B16F10 cells. B16F10 tumors were allowed to grow for 14-days to allow formation of solid malignant melanomas. Spleens from tumor bearing mice were dissected and primary murine CD4+ Treg cells were isolated and analyzed for the effects of the soluble collagen peptide (P2) or control peptide (CP) on cell migration on denatured collagen type-IV. […]

Sequence: QGPRGDKGE (CQGPRGDKGEC; Synthetic: Synthetic collagen RGD containing peptide P-2) [Peptide P2, synthetic version of the soluble RGDKGE-containing collagen peptide]
- Hut78 T-cell migration (Hut78 T-cells; denatured collagen type-IV): selectively inhibited
- Hut78 T-cell migration (Hut78 T-cells; native collagen type-IV): neither the soluble RGDKGE (SEQ ID NO: 1) collagen peptide P2, nor the non-specific control peptide had any significant effect
- mean CD4+ Treg cell migration cell count [1]: significant increase
